{"source": "patent US12162888B2", "about": "“Carboxamides as ubiquitin-specific protease inhibitors” (Valo Early Discovery, Inc., priority 2018, dated 2024)"}
{"molecular_target": "T1, USP28 (USP28-5(1-1077)-TEV-6*His; LifeSensors) (Homo sapiens, UniProt Q96RU2)", "T1 construct": "construct USP28 (USP28-5(1-1077)-TEV-6*His; LifeSensors); TEV cleavage site (C); 6xHis (C); purchased LifeSensors", "T1 sequence (Q96RU2 1-1077)": "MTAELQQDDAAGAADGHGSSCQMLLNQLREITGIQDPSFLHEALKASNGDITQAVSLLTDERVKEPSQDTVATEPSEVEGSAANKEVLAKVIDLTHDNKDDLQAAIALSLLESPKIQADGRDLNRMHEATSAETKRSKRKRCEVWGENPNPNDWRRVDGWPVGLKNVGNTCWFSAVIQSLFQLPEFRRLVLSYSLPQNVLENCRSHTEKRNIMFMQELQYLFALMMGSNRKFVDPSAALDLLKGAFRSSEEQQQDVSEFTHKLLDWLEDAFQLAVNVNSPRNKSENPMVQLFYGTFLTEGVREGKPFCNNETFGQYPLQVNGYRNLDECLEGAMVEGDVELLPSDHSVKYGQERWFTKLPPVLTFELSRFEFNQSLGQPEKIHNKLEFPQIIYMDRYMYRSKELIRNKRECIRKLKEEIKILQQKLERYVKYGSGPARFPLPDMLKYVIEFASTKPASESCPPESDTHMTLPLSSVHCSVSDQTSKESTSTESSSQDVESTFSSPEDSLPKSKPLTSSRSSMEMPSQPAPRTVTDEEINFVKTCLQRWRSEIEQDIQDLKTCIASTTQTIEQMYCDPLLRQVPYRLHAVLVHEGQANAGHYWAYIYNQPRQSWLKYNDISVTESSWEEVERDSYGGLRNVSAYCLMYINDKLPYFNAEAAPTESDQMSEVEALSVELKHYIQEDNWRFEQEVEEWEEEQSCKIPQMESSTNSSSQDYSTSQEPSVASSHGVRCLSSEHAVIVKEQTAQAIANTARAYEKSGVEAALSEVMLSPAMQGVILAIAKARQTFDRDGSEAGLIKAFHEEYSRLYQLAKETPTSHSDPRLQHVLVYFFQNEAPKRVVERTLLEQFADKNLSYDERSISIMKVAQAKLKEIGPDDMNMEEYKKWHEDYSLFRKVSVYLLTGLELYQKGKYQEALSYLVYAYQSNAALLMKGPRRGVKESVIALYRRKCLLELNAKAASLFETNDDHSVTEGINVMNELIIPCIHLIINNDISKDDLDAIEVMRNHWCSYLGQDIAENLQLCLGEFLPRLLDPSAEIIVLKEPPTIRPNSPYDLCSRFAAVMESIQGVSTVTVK", "assay": "Ubiquitin-Rhodamine 110 Assay for USP28 Activity, Example A-1(b)", "format": "biochemical", "procedure": "Example A-1(b): Biochemical Assay: Ubiquitin-Rhodamine 110 Assay for USP28 Activity\nEach assay was performed in a final volume of 20 μL in assay buffer containing 20 mM Tris-HCl (pH 8.0, (1M Tris-HCl, pH 8.0 solution; Corning 46-031-CM)), 2 mM CaCl2 (1M Calcium Chloride solution; Sigma #21114) 2 mM BME (2-Mercaptoethanol; Sigma 63689-25ML-F), 0.01% Prionex (0.22 μM filtered, Sigma #G-0411), and 0.01% Triton X-100. Stock compound solutions were stored at −20° C. as 10 mM in DMSO. Up to 1 month prior to the assay, 2 mM test compounds were pre-dispensed into assay plates (Black, low volume; Corning #3820) and frozen at −20° C. Prestamped assay plates were allowed to come to room temperature on the day of the assay. For the screen, 100 nL of 2 mM was pre-dispensed for a final screening concentration of 10 μM (DMSO(fc)=0.5%). […] Plates were incubated stacked for 90 minutes at room temperature before fluorescence was read on the Envision (Excitation at 485 nm and Emission at 535 nm; Perkin Elmer) or on the PheraSTAR (Excitation at 485 nm and Emission at 535 nm; BMG Labtech).\nFor follow-up studies, each assay was performed in a final volume of 15 μL in assay buffer containing 20 mM Tris-HCl (pH 8.0, (1M Tris-HCl, pH 8.0 solution; Corning 46-031-CM)), 3 mM BME (2-Mercaptoethanol; Sigma 63689-25ML-F), 0.03% BGG (0.22 μM filtered, Sigma, G7516-25G), and 0.01% Triton X-100 (Sigma, T9284-10L). Nanoliter quantities of either an 8-point or 10-point, 3-fold serial dilution in DMSO was pre-dispensed into assay plates (Perkin Elmer, ProxiPlate-384 F Plus, #) for a final test concentration of either 25 μM to 11 nM or 25 μM to 1.3 nM, respectively. Enzyme USP28, construct USP28 (USP28-5(1-1077)-TEV-6*His; LifeSensors) concentration and incubation times were optimized for the maximal signal-to-background while maintaining initial velocity conditions at a fixed substrate concentration. The final concentration of the enzyme in the assay was […]. Final substrate (Ub-Rh110; Ubiquitin-Rhodamine 110, R&D Systems #U-555) concentration was 25 nM with [Ub-Rh110]<<Km. 5 μL of 2× enzyme was added to assay plates (pre-stamped with compound) preincubated with USP28 for 30 minutes and then 5 μL of 2× Ub-Rh110 was added to assay plates. Plates were incubated stacked for 20 minutes at room temperature before 5 μL of stop solution was added (final concentration of 10 mM citric acid (Sigma, 251275-500G)). Fluorescence was read on the Envision (Excitation at 485 nm and Emission at 535 nm; Perkin Elmer) or on the PheraSTAR (Excitation at 485 nm and Emission at 535 nm; BMG Labtech).\nFor assay formats Example A-1(a), A-1(b), and A-2, data were reported as percent inhibition compared with control wells based on the following equation: % inh=1−((FLU−AveLow)/(AveHigh−AveLow)) where FLU=measured Fluorescence, AveLow=average Fluorescence of no enzyme control (n=16), and AveHighh=average Fluorescence of DMSO control (n=16). IC50 values were determined by curve fitting of the standard 4 parameter logistic fitting algorithm included in the Activity Base software package: IDBS XE Designer Model 205. Data is fitted using the Levenburg Marquardt algorithm."}
{"compound": "CN[C@@H]1CCN(c2ccc3c(c2)CC[C@@H](NC(=O)c2sc4nc(C)cnc4c2N)C3)C1", "note": "(single isomer, unassigned) [Example 11-28]", "USP28 A-1(b) IC50 range": "+ (“+”L>2 μM)"}
{"compound": "Cc1ccc2c(N)c(C(=O)N[C@H]3COc4cc(N5CCNCC5)ccc4[C@@H]3C)sc2n1", "note": "(single isomer, unassigned) [Example 11-16]", "USP28 A-1(b) IC50 range": "+ (“+”L>2 μM)"}
{"compound": "Cc1cnc2c(N)c(C(=O)N[C@H]3CCc4cc(N5C[C@@H]6C[C@H]5CN6)ccc4C3)sc2n1", "note": "(single isomer, unassigned) [Example 11-29]", "USP28 A-1(b) IC50 range": "++ (“++”: 0.2-2 μM)"}
{"compound": "Cc1cnc2c(N)c(C(=O)N[C@@H]3CCc4cc(N5CCNCC5)ccc4C3)sc2n1", "note": "(single isomer, unassigned) [Example 11-20]", "USP28 A-1(b) IC50 range": "+ (“+”L>2 μM)"}
{"compound": "Cc1cnc2c(N)c(C(=O)N[C@H]3CCc4cc(N5CCNCC5)c(F)cc4C3)sc2n1", "note": "(single isomer, unassigned) [Example 21-12]", "USP28 A-1(b) IC50 range": "++++ (“++++”: 0.001-0.05 μM)"}
{"compound": "Cc1ccc2c(N)c(C(=O)N[C@@H]3CCc4cc(N5CC6CNCC(C5)O6)cc(F)c4C3)sc2n1", "note": "(single isomer, unassigned) [Example 11-40]", "USP28 A-1(b) IC50 range": "++++ (“++++”: 0.001-0.05 μM)"}
{"compound": "Cc1cnc2c(N)c(C(=O)N[C@@H]3CCc4cc(N5C[C@@H]6C[C@H]5CN6)ccc4C3)sc2n1", "note": "(single isomer, unassigned) [Example 11-30]", "USP28 A-1(b) IC50 range": "++ (“++”: 0.2-2 μM)"}
{"compound": "Cc1cnc2c(N)c(C(=O)N[C@@H]3CCc4cc(N5CCNCC5)cc(F)c4C3)sc2n1", "note": "(single isomer, unassigned) [Example 11-37]", "USP28 A-1(b) IC50 range": "+ (“+”L>2 μM)"}
{"compound": "Cc1ccc2c(N)c(C(=O)N[C@H]3CCc4cc(N5CCNCC5)ccc4C3)sc2n1", "note": "(single isomer, unassigned) [Example 11-21]", "USP28 A-1(b) IC50 range": "++ (“++”: 0.2-2 μM)"}
{"compound": "Cc1ccc2c(N)c(C(=O)N[C@@H]3CCc4c(C#N)c(N5CCNCC5)cc(F)c4C3)sc2n1", "note": "(single isomer, unassigned) [Example 14-9]", "USP28 A-1(b) IC50 range": "+ (“+”L>2 μM)"}
{"compound": "CN[C@@H]1CCN(c2ccc3c(c2)CC[C@H](NC(=O)c2sc4nc(C)cnc4c2N)C3)C1", "note": "(single isomer, unassigned) [Example 11-27]", "USP28 A-1(b) IC50 range": "++ (“++”: 0.2-2 μM)"}
{"compound": "Cc1ccc2c(N)c(C(=O)N[C@H]3CCc4c(C#N)c(N5CCNCC5)cc(F)c4C3)sc2n1", "note": "(single isomer, unassigned) [Example 14-10]", "USP28 A-1(b) IC50 range": "+++ (“+++”: 0.05-0.2 μM)"}
{"compound": "Cc1cnc2c(N)c(C(=O)N[C@@H]3CCc4cc(N5CCNCC5)c(F)cc4C3)sc2n1", "note": "(single isomer, unassigned) [Example 21-11]", "USP28 A-1(b) IC50 range": "++ (“++”: 0.2-2 μM)"}
{"compound": "Cc1cnc2c(N)c(C(=O)N[C@H]3CCc4cc(N5CCNCC5)ccc4C3)sc2n1", "note": "(single isomer, unassigned) [Example 11-19]", "USP28 A-1(b) IC50 range": "++ (“++”: 0.2-2 μM)"}
{"compound": "Cc1ccc2c(N)c(C(=O)N[C@H]3COc4cc(N5CCNCC5)ccc4[C@@H]3C)sc2n1", "note": "(single isomer, unassigned) [Example 11-17]", "USP28 A-1(b) IC50 range": "+ (“+”L>2 μM)"}
{"compound": "Cc1cnc2c(N)c(C(=O)N[C@H]3CCc4cc(N5C[C@H]6C[C@@H]5CN6)ccc4C3)sc2n1", "note": "(single isomer, unassigned) [Example 11-31]", "USP28 A-1(b) IC50 range": "++ (“++”: 0.2-2 μM)"}
{"compound": "Cc1nc2sc(C(=O)N[C@@H]3CCc4cc(N5CCNCC5)ccc4C3)c(N)c2s1", "note": "(single isomer, unassigned) [Example 11-34]", "USP28 A-1(b) IC50 range": "++ (“++”: 0.2-2 μM)"}
{"compound": "Cc1nc2sc(C(=O)N[C@H]3CCc4cc(N5CCNCC5)ccc4C3)c(N)c2s1", "note": "(single isomer, unassigned) [Example 11-33]", "USP28 A-1(b) IC50 range": "+ (“+”L>2 μM)"}
{"compound": "Cc1cnc2c(N)c(C(=O)N[C@@H]3CCc4cc(N5C[C@H]6C[C@@H]5CN6)ccc4C3)sc2n1", "note": "(single isomer, unassigned) [Example 11-32]", "USP28 A-1(b) IC50 range": "++ (“++”: 0.2-2 μM)"}
{"compound": "CN[C@H]1CCN(c2ccc3c(c2)CC[C@H](NC(=O)c2sc4nc(C)cnc4c2N)C3)C1", "note": "(single isomer, unassigned) [Example 11-25]", "USP28 A-1(b) IC50 range": "++ (“++”: 0.2-2 μM)"}
{"compound": "Cc1ccc2c(N)c(C(=O)N[C@@H]3CCc4cc(N5CCNCC5)ccc4C3)sc2n1", "note": "(single isomer, unassigned) [Example 11-22]", "USP28 A-1(b) IC50 range": "++ (“++”: 0.2-2 μM)"}
{"compound": "Cc1cnc2c(N)c(C(=O)N[C@H]3CCc4cc(N5CCNCC5)cc(F)c4C3)sc2n1", "note": "(single isomer, unassigned) [Example 11-38]", "USP28 A-1(b) IC50 range": "+++ (“+++”: 0.05-0.2 μM)"}
{"compound": "CN[C@H]1CCN(c2ccc3c(c2)CC[C@@H](NC(=O)c2sc4nc(C)cnc4c2N)C3)C1", "note": "(single isomer, unassigned) [Example 11-26]", "USP28 A-1(b) IC50 range": "+ (“+”L>2 μM)"}
{"compound": "Cc1ccc2c(N)c(C(=O)N[C@H]3COc4cc(N5CCNCC5)ccc4[C@H]3C)sc2n1", "note": "(single isomer, unassigned) [Example 11-15]", "USP28 A-1(b) IC50 range": "+ (“+”L>2 μM)"}
{"compound": "Cc1ccc2c(N)c(C(=O)N[C@@H]3COc4cc(N5CCNCC5)ccc4[C@@H]3C)sc2n1", "note": "(single isomer, unassigned) [Example 11-18]", "USP28 A-1(b) IC50 range": "+ (“+”L>2 μM)"}
{"compound": "Cc1ccc2c(N)c(C(=O)N[C@H]3CCc4cc(N5CC6CNCC(C5)O6)cc(F)c4C3)sc2n1", "note": "(single isomer, unassigned) [Example 11-39]", "USP28 A-1(b) IC50 range": "++ (“++”: 0.2-2 μM)"}
{"compound": "Cc1cnc2c(N)c(C(=O)N[C@H]3CCc4c(ccc(N5CCNCC5)c4F)C3)sc2n1", "note": "(single isomer, unassigned) [Example 21-10]", "USP28 A-1(b) IC50 range": "+ (“+”L>2 μM)"}
{"compound": "Cc1cnc2c(N)c(C(=O)N[C@@H]3CCc4c(ccc(N5CCNCC5)c4F)C3)sc2n1", "note": "(single isomer, unassigned) [Example 21-9]", "USP28 A-1(b) IC50 range": "++ (“++”: 0.2-2 μM)"}
